Data as given in patent US11834454B2, “Alkynylphenylbenzamide compounds and applications thereof” (SHENZHEN NEWDEL BIOTECH CO., LTD., priority 2021, dated 2023).
Like-named read-outs stand apart in the source and are kept apart here.

What was measured:
[1] = SD rats, cited from earlier work
TRKA = target: T1, TRKA (Homo sapiens, UniProt P04629); test: Z'-LYTE kinase activity detection, TRKA; assay type: biochemical
T1 construct: purchased American Life Technologies PV3144

TRKB = target: T2, TRKB (Homo sapiens, UniProt Q16620); test: Z'-LYTE kinase activity detection, TRKB; assay type: biochemical
T2 construct: purchased American Life Technologies PV3616

BaF3-CD74-NTRK1 = target: T3, BaF3-CD74-NTRK1 (Homo sapiens, UniProt P04629); test: Cell proliferation inhibition, Ba/F3-TRKs stable strain (CCK-8); assay type: cell-based, mouse; settings: 72 hours, read-out: cell viability IC50 CD74-NTRK1
T3 construct: fused on or other part: P04233 (HLA class II histocompatibility antigen gamma chain)
Description: (§1) The BaF3 cells (mouse pre-B cells) used in this experiment were purchased from the Japanese Cell Bank. All of the monoclonal stable strains, BaF3-CD74-NTRK1, BaF3-ETV6-NTRK2 and BaF3-ETV6-NTRK3 were constructed by our laboratory, and were identified by experiments such as positive control, protein expression and gene sequencing.
(§2) The brief steps of stable strain construction were as follows: constructed pCDNA3.1(+) plasmid vector carrying genes such as CD74-NTRK1, ETV6-NTRK2, ETV6-NTRK3; the plasmid was electroporated into Ba/F3 cells using Amaxa® Cell Line Nucleofector® Kit V; 48 hours after electroporation, geneticin (G418) with a final concentration of 1000 μg/mL was added to screen for two weeks, and the interleukin 3 (IL3) was removed to continue screening to obtain polyclonal stable strains; and then single clones were selected by limiting dilution method; the stable strains were then identified by the positive drugs, Western Blot (WB), and gene sequencing; the correct monoclonal through identification can be used to study the cell proliferation inhibitory activity of the inhibitors.
(§3) Cell proliferation inhibitory activity study: The cells in logarithmic growth phase were seeded into 96-well plates at 8000-12000 cells/well, and the inhibitors at different concentrations of (0-10 μM) were added the next day, and the culture was continued for 72 hours; then 10 μL of Cell Counting Kit-8 Cell Counting Reagent (CCK-8 Reagent) was added to each well, and continued to incubate for 1-3 hours; then its absorbance at 450 nm and 650 nm were measured with a super microplate reader. The median inhibitory concentration (IC50) was calculated using medical graphing software (GraphPad Prism 8.0.0).

BaF3-ETV6-NTRK2 = target: T4, BaF3-ETV6-NTRK2 (Homo sapiens, UniProt Q16620); test: as above; assay type: cell-based, mouse; settings: 72 hours, read-out: cell viability IC50 ETV6-NTRK2
T4 construct: fused on or other part: P41212 (Transcription factor ETV6)
Description: as §1, §2, §3

BaF3-ETV6-NTRK3 = target: T5, BaF3-ETV6-NTRK3 (Homo sapiens, UniProt Q16288); test: as above; assay type: cell-based, mouse; settings: 72 hours, read-out: cell viability IC50 ETV6-NTRK3
T5 construct: fused on or other part: P41212 (Transcription factor ETV6)
Description: as §1, §2, §3

TRKC = target: T6, TRKC (Homo sapiens, UniProt Q16288); test: Z'-LYTE kinase activity detection, TRKC; assay type: biochemical
T6 construct: purchased American Life Technologies PV3617

Kit = Kit (Homo sapiens, UniProt P10721); test: Kinase selectivity, Z'-LYTE
Description: (§4) Enzymatic reaction: In a 384-well plate, added 5 μL of enzyme-substrate system [50 mM 4-hydroxyethylpiperazineethanesulfonic acid (HEPES) pH 7.5, 0.01% BRIJ-35, 10 mM of magnesium chloride (MgCl2), 1 mM of ethylene glycol bis(2-aminoethyl ether)tetraacetic acid (EGTA), 2 μM of Tyr 01 peptide substrate], transferred 5 nL of compound (concentration gradient) using an Echo520 Ultra-Micro Liquid Pipetting System. […] Shaked and mixed, then centrifuged, and reacted at 30° C. in the dark for 1.5 hours.

SRC = SRC (Homo sapiens, UniProt P12931); test: Kinase selectivity, Z'-LYTE
Description: as §4

VEGFR2 = VEGFR2 (Homo sapiens, UniProt P35968); test: Kinase selectivity, Z'-LYTE
Description: as §4

RET = RET (Homo sapiens, UniProt P07949); test: Kinase selectivity, Z'-LYTE
Description: as §4

PDGFRB = PDGFRB (Homo sapiens, UniProt P09619); test: Kinase selectivity, Z'-LYTE
Description: as §4

PDGFRA = PDGFRA (Homo sapiens, UniProt P16234); test: Kinase selectivity, Z'-LYTE
Description: as §4

Bcr-Abl = Bcr-Abl (Homo sapiens, UniProt P00519); test: Kinase selectivity, Z'-LYTE
Description: as §4

T5 sequence (Q16288 whole entry, the tested form may be a part): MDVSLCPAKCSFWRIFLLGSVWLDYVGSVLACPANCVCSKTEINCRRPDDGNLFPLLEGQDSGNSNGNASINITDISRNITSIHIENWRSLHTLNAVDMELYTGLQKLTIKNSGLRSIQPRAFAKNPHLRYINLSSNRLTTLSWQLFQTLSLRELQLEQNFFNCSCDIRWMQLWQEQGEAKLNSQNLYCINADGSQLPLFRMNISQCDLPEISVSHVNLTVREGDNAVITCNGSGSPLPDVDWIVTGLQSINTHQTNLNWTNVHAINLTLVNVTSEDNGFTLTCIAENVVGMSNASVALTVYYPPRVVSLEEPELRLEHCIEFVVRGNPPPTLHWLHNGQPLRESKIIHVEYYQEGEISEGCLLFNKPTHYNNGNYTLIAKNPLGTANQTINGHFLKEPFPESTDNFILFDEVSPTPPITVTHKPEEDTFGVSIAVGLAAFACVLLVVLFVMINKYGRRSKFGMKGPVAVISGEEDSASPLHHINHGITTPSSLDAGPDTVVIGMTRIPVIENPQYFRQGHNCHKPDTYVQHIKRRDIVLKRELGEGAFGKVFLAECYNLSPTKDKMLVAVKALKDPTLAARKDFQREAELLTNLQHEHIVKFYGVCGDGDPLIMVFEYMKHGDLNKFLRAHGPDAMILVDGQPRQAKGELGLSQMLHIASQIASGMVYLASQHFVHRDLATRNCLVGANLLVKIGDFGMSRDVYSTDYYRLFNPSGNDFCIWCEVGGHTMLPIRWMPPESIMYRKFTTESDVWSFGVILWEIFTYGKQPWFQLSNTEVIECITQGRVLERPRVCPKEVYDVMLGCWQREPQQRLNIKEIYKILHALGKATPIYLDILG
T3 sequence (P04629 510-796 limits assumed): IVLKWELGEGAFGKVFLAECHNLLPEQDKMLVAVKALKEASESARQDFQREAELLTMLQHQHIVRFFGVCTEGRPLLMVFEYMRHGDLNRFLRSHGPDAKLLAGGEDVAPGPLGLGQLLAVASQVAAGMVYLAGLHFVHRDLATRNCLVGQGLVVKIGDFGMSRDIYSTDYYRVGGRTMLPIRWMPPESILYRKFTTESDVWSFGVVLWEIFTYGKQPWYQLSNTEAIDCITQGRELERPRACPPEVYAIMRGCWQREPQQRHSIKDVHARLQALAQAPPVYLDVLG
T1 sequence (P04629 33-796): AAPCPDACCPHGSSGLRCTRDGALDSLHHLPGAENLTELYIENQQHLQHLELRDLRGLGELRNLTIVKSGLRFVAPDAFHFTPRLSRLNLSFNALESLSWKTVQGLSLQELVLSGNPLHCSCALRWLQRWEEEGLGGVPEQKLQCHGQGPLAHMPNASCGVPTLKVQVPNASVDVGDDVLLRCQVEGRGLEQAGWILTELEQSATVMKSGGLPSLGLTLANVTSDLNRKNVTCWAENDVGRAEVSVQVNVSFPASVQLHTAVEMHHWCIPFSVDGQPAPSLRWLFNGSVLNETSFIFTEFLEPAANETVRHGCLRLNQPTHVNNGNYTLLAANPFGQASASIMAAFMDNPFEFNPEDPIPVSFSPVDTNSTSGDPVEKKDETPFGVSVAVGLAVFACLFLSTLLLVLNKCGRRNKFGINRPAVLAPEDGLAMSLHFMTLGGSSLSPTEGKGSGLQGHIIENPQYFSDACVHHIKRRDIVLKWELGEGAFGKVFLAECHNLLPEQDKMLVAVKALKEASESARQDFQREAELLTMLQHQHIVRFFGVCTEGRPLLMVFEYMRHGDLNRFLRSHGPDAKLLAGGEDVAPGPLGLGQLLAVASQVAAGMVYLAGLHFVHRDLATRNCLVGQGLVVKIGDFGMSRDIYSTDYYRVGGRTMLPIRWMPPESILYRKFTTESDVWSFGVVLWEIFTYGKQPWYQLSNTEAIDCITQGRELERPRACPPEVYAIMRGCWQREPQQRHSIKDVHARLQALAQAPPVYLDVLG
T6 sequence (Q16288 32-839): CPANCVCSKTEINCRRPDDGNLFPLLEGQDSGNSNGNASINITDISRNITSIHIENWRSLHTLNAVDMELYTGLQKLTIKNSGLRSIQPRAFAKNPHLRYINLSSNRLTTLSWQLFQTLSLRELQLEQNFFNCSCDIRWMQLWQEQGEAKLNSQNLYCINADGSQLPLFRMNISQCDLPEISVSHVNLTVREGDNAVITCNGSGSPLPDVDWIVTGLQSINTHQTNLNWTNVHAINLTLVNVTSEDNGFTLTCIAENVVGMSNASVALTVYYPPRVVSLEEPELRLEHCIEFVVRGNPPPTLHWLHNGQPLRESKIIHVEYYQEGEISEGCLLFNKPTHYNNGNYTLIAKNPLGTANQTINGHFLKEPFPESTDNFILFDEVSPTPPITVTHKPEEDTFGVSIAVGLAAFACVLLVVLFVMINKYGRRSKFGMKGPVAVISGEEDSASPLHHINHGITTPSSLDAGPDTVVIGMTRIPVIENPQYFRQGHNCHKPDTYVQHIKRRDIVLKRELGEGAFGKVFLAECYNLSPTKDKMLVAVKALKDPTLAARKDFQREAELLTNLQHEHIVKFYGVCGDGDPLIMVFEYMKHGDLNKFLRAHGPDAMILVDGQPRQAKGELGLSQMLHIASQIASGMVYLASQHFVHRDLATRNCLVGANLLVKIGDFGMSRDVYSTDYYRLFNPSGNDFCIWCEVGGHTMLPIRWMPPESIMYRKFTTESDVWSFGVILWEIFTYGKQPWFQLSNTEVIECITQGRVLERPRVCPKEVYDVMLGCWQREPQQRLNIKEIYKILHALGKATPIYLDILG
T4 sequence (Q16620 538-822 limits assumed): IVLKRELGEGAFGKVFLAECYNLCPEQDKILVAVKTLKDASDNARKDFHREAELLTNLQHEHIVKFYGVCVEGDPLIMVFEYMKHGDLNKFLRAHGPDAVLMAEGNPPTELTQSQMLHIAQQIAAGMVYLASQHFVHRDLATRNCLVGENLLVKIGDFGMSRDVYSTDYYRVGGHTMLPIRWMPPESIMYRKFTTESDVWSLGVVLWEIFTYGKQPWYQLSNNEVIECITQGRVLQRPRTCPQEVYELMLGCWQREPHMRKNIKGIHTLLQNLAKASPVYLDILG
T2 sequence (Q16620 32-822): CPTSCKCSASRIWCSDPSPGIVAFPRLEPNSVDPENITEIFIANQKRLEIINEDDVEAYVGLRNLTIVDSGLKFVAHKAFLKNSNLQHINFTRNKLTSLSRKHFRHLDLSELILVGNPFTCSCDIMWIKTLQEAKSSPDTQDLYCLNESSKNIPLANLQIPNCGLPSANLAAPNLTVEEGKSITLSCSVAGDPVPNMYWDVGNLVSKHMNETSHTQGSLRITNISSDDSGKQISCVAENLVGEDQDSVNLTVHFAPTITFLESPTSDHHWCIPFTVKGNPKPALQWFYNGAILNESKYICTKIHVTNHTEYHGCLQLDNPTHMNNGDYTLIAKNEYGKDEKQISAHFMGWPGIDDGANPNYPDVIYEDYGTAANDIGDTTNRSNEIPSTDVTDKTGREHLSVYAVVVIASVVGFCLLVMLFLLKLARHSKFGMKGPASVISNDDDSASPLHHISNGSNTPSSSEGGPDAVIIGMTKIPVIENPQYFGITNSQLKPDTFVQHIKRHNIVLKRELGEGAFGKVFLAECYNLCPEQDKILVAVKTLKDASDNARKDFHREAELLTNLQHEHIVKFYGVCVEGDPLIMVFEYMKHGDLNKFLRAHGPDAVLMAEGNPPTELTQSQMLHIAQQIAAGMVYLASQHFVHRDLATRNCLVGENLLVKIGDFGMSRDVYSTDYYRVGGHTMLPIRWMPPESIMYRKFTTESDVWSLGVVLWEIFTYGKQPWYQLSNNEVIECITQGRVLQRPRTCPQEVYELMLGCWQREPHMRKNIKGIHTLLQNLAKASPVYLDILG
RET, sequence (P07949 29-1114, species assumed): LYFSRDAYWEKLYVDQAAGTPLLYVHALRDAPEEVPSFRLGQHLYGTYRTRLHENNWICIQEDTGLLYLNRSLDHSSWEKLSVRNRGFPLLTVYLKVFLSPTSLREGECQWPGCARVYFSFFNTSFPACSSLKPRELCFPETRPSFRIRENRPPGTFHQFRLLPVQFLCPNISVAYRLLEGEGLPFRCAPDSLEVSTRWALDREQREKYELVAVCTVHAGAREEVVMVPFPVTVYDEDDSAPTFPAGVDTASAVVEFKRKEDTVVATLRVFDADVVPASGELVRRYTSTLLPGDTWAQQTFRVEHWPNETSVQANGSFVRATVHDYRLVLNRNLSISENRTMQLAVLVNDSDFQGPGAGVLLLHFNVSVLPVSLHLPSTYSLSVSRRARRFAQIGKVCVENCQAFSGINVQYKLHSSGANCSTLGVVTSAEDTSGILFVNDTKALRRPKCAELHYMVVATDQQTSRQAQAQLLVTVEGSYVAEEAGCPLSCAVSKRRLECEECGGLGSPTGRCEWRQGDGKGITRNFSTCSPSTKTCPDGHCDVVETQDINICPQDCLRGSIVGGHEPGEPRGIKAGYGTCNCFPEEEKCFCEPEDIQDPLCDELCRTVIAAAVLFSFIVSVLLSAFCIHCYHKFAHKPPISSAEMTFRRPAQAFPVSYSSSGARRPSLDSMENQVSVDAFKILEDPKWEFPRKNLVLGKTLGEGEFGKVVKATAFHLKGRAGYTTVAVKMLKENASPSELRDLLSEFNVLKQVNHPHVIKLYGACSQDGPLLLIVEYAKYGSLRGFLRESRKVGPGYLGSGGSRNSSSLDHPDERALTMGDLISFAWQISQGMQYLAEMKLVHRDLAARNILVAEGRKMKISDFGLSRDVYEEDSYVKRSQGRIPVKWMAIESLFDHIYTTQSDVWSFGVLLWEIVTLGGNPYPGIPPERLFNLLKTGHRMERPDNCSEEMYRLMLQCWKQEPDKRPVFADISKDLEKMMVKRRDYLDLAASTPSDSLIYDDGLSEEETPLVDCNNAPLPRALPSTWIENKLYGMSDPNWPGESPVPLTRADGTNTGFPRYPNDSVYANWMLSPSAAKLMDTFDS

Row | IC50 (TRKA) | IC50 (TRKB) | IC50 (TRKC) | SMILES | IC50 (BaF3-CD74-NTRK1) | IC50 (BaF3-ETV6-NTRK2) | IC50 (BaF3-ETV6-NTRK3) | also measured
1 | – | – | – | Cc1c(C#Cc2cnc3cnc(-c4ccc(N)cc4)cn23)cccc1C(=O)Nc1cc(CN2CCN(C)CC2)cc(C(C)C)c1 [Compound 9o] | – | – | – | AUC (0-∞) ([1]; intravenous injection, 5 mg/kg): 810.45 ng·h/mL; AUC(0-t) ([1]; intravenous injection, 5 mg/kg): 804.65 ng·h/mL; Clearance rate ([1]; intravenous injection, 5 mg/kg): 21.0085 mL/min/kg; Cmax ([1]; intravenous injection, 5 mg/kg): 1968.37 ng/mL; Tmax ([1]; intravenous injection, 5 mg/kg): 0.083 h; half-life ([1]; intravenous injection, 5 mg/kg): 2.03 h; BA ([1]; oral 25 mg/kg vs intravenous 5 mg/kg): 10.72%; AUC (0-∞) ([1]; oral, 25 mg/kg): 445.18 ng·h/mL; AUC(0-t) ([1]; oral, 25 mg/kg): 431.49 ng·h/mL; Cmax ([1]; oral, 25 mg/kg): 63.3 ng/mL; Tmax ([1]; oral, 25 mg/kg): 2 h; half-life ([1]; oral, 25 mg/kg): 4.77 h
2 | 10 to 100 nM | 10 to 100 nM | 10 to 100 nM | Cc1c(C#Cc2cnc3ccc(N(C)CCN(C)C)nn23)cccc1C(=O)Nc1cc(Cl)cc(C(F)(F)F)c1 [XS3-134, N-(3-CHLORO-5-(TRIFLUOROMETHYL)PHENYL)-3-((6-((2-(DIMETHYLAMINO)ETHYL)(METHYL)AMINO)IMIDAZO[1,2-B]PYRIDAZIN-3-YL)ETHYNYL)-2-METHYLBENZAMIDE] | 100 to 1000 nM | 100 to 1000 nM | 10 to 100 nM | –
3 | 10 to 100 nM | 10 to 100 nM | 10 to 100 nM | COCCNc1ccc2ncc(C#Cc3cccc(C(=O)Nc4cc(Cl)cc(C(F)(F)F)c4)c3C)n2n1 [XS3-135, N-(3-CHLORO-5-(TRIFLUOROMETHYL)PHENYL)-3-((6-((2-METHOXYETHYL)AMINO)IMIDAZO[1,2-B] PYRIDAZIN-3-YL)ETHYNYL)-2-METHYLBENZAMIDE] | 100 to 1000 nM | 100 to 1000 nM | 10 to 100 nM | –
4 | 10 to 100 nM | < 10 nM | < 10 nM | Cc1c(C#Cc2cnc3ccc(N4CCN(C5COC5)CC4)nn23)cccc1C(=O)Nc1cc(Cl)cc(C(F)(F)F)c1 [XS3-138, N-(3-CHLORO-5-(TRIFLUOROMETHYL)PHENYL)-2-METHYL-3-((6-(4-(OXETAN-3-YL)PIPERAZINE)-1-YL)IMIDAZO[1,2-B]PYRIDAZIN-3-YL)ETHYNYL)BENZAMIDE] | 10 to 100 nM | 10 to 100 nM | < 10 nM | –
5 | 10 to 100 nM | 10 to 100 nM | 10 to 100 nM | Cc1c(C#Cc2cnc3ccc(NCCCCO)nn23)cccc1C(=O)Nc1cc(Cl)cc(C(F)(F)F)c1 [XS3-139, N-(3-CHLORO-5-(TRIFLUOROMETHYL)PHENYL)-3-((6-((4-HYDROXYBUTYL)AMINO)IMIDAZO[1,2-B]PYRIDAZINE-3-YL)ETHYNYL)-2-METHYLBENZAMIDE] | 10 to 100 nM | 10 to 100 nM | 10 to 100 nM | –
6 | 10 to 100 nM | 10 to 100 nM | 10 to 100 nM | Cc1c(C#Cc2cnc3ccc(N4CCC(C)(O)CC4)nn23)cccc1C(=O)Nc1cc(Cl)cc(C(F)(F)F)c1 [XS3-153, N-(3-CHLORO-5-(TRIFLUOROMETHYL)PHENYL)-3-(6-(4-HYDROXY-4-METHYLPIPERIDIN-1-YL)IMIDAZO[1,2-B]PYRIDAZIN-3-YL)ETHYNYL)-2-METHYLBENZAMIDE] | 10 to 100 nM | 10 to 100 nM | 10 to 100 nM | –
7 | 10 to 100 nM | 10 to 100 nM | 10 to 100 nM | COc1cc(NC(=O)c2cccc(C#Cc3cnc4ccc(N5CCOCC5)nn34)c2C)cc(C(F)(F)F)c1 [XS4-72] | 10 to 100 nM | 10 to 100 nM | < 10 nM | –
8 | 10 to 100 nM | 10 to 100 nM | 10 to 100 nM | Cc1c(C#Cc2cnc3ccc(N4CCOCC4)nn23)cccc1C(=O)Nc1cc(C(F)(F)F)cc(C(F)(F)F)c1 [XS4-76] | 10 to 100 nM | 10 to 100 nM | 10 to 100 nM | –
9 | 10 to 100 nM | 10 to 100 nM | 10 to 100 nM | Cc1c(C#Cc2cnc3ccc(N4CCOCC4)nn23)cccc1C(=O)Nc1cc([N+](=O)[O-])cc(C(F)(F)F)c1 [XS4-77] | 10 to 100 nM | 10 to 100 nM | < 10 nM | –
10 | – | – | – | Cc1ccc(C(=O)Nc2cc(Cl)cc(C(F)(F)F)c2)cc1C#Cc1cnc2ccc(N3CCC(O)CC3)nn12 [XS4-128, N-(3-Chloro-5-(trifluoromethyl)phenyl)-3-((6-(4-hydroxypiperidin-1-yl)imidazo[1,2-B]pyridazine-3-yl)ethynyl)-4-methylbenzamide, reference compound] | – | – | – | IC50 (Kit): 93.5 nM; IC50 (SRC): 20.3 nM; IC50 (VEGFR2): 18.9 nM; IC50 (RET): 10.7 nM; IC50 (PDGFRB): 119 nM; IC50 (PDGFRA): 19.9 nM; IC50 (Bcr-Abl): 129 nM
11 | 10 to 100 nM | 10 to 100 nM | 10 to 100 nM | Cc1c(C#Cc2cnc3cccnn23)cccc1C(=O)Nc1cc(CN2CCN(C)CC2)cc(C(F)(F)F)c1 [XS116] | 100 to 1000 nM | 100 to 1000 nM | 100 to 1000 nM | –
